Values quoted from earlier work as cited in US11980625B2, “Ganaxolone for use in treating tuberous sclerosis complex” (Marinus Pharmaceuticals, Inc., priority 2019, dated 2024).
Like-named read-outs stand apart in the source and are kept apart here.

Tests used:
[1] = system: patients with TSC-related epilepsy; details: 18 weeks, cited from earlier work
[2] = human plasma; cited from earlier work
[3] = system: patients with TSC-related epilepsy; details: Phase 2, open-label, 3 months; cited from earlier work
[4] = system: patients with TSC-related epilepsy; details: 16 weeks, cited from earlier work

CO[C@H]1C[C@@H]2CC[C@@H](C)[C@@](O)(O2)C(=O)C(=O)N2CCCC[C@H]2C(=O)O[C@H]([C@H](C)C[C@@H]2CC[C@@H](OCCO)[C@H](OC)C2)CC(=O)[C@H](C)/C=C(\C)[C@@H](O)[C@@H](OC)C(=O)[C@H](C)C[C@H](C)/C=C/C=C/C=C/1C [AFINITOR ®]
Median % change in seizure freq (Drug Response) ([1]; Phase 3, High-exposure): High-exposure: −39.6%
Median % change in seizure freq (Drug Response) ([1]; Phase 3, Low-exposure): Low-exposure: −29.3%

CC(=O)[C@H]1CC[C@H]2[C@@H]3CC[C@H]4C[C@H](O)CC[C@]4(C)[C@H]3CC[C@]12C [Allopregnanolone, 3α,5α-tetrahydroprogesterone, reference compound]
half-life [2]: about 45 minutes

C=C(C)[C@@H]1CCC(C)=C[C@H]1c1c(O)cc(CCCCC)cc1O [EPIDIOLEX ®]
Median % change in seizure freq (Drug Response) [3]: −48.8%
Median % change in seizure freq (Drug Response) ([4]; Phase 3, 25 mg/kg/day): 25 mg/kg/day: −48.6%
Median % change in seizure freq (Drug Response) ([4]; Phase 3, High-exposure): High-exposure: −47.5%
